Experimental data taken from US11021481B2, “Substituted isoindolin-1-ones and 2,3-dihydro-1h-pyrrolo[3,4-c]pyridin-1-ones as HPK1 antagonists” (Nimbus Saturn, Inc., priority 2019, dated 2021).
Structures can show the parent of a compound that is named as a salt.

The compounds below were run against HPK1 (Homo sapiens (Human), UniProt Q92918) (assay: HPK1 biochemical enzyme assay (microfluidic mobility shift assay)). Details: 1.5 nM HPK1, ATP 1 mM final, 30 min preincubation, 60 min at RT, Caliper EZ Reader; read-out: HPK1 1000UMATP caliper IC50.
Chain of HPK1 (Q92918 whole entry): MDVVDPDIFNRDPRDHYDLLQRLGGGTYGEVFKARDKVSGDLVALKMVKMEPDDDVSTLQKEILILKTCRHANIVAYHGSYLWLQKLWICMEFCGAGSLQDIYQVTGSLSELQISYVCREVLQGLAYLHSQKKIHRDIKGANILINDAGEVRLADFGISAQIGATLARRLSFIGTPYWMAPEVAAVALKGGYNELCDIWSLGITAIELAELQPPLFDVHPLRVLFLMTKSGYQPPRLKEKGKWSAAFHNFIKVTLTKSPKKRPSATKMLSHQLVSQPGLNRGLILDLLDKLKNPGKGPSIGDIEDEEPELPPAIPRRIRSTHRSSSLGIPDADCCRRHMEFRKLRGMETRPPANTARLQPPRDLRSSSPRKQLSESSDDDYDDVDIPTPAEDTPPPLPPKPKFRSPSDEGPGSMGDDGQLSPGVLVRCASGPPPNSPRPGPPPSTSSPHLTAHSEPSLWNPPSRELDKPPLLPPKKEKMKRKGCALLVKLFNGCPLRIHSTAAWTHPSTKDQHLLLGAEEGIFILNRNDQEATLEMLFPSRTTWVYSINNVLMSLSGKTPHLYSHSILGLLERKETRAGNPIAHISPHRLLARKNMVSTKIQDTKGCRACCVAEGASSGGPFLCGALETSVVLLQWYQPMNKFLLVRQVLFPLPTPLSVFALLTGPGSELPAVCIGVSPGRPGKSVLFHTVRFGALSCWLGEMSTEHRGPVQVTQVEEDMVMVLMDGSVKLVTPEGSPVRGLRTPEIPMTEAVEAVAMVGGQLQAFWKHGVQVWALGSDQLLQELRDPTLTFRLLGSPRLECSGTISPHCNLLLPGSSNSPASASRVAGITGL
Outline: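 Mobility shift readout of HPK1 activity after a 60 min RT reaction with 1 mM ATP, 1 μM substrate and 5 mM MgCl2. Enzyme/substrate mix was first exposed to compounds for 30 min, using ten-point curves topping at 3 μM final.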

Compound	IC50
N#Cc1ccn2c(-c3ccc(Nc4ccc(N5CCC(O)CC5)cn4)c4c3CNC4=O)cnc2c1 [I-182, 3-[7-[[5-(4-hydroxy-1-piperidyl)-2-pyridyl]amino]-1-oxo-isoindolin-4-yl]imidazo[1,2-a]pyridine-7-carbonitrile]	< 100 nM
COCC1CN(c2ccc(Nc3ccc(-c4ncnc5c4ccn5C)c4c3C(=O)NC4)nc2)CCO1 (stereo in doubt) [I-650, (S)-7-((5-(2-(methoxymeth-yl)morpho-lino)pyridin-2-yl)amino)-4-(7-methyl-7H-pyrrolo[2,3-d|pyrimidin-4-yl)isoindolin-1-one]	< 100 nM
CN(C)C(C)(C)C1CCCN(c2ccc(Nc3ccc(-c4cnc5cc(F)ccn45)c4c3C(=O)NC4)nc2)C1 (stereo in doubt) [I-607, (S)-7-((5-(3-(2-(dimethylami-no)propan-2-yl)piperidin-1-yl)pyridin-2-yl)amino)-4-(7-fluoroimidazo [1,2-a]pyridin-3-yl)isoindolin-1-one]	< 100 nM
C[C@H]1CCn2ncc(-c3ccc(Nc4ccc(N5CCN(C)CC5)cn4)c4c3CNC4=O)c2C1 [I-264, (S)-4-(5-methyl-4,5,6,7-tetrahydropyra-zolo[1,5-a]pyridin-3-yl)-7-((5-(4-methylpiperazin-1-yl)pyridin-2-yl)amino)isoin-dolin-1-one]	< 100 nM
CN1CCN(c2ccc(Nc3cnc(-c4cccc5[nH]ccc45)c4c3C(=O)NC4)nc2)CC1 [I-252, 4-(1H-indol-4-yl)-7-((5-(4-methylpiperazin-1-yl)pyridin-2-yl)amino)-2,3-dihydro-1H-pyrrolo[3,4-c]pyridin-1-one]	100 to 1000 nM
O=C1NCc2c(-c3cnc4cc(F)ccn34)ccc(Nc3ccc([C@H]4CCOC4)cn3)c21 [I-218, (R)-4-(7-fluoroimidazo [1,2-a]pyridin-3-yl)-7-((5-(tetrahydrofuran-3-yl)pyridin-2-yl)amino)isoin-dolin-1-one]	< 100 nM
Cc1cnn2c(-c3ccc(Nc4ccc(N5CCC(O)CC5)cn4)c4c3CNC4=O)cnc2c1 [I-184, 7-[[5-(4-hydroxy-1-piperidyl)-2-pyripyl]amino]-4-(7-methylimidazo [1,2-b]pyridazin-3-yl)isoindolin-1-one]	< 100 nM
C[C@H](O)C1CCN(c2ccc(Nc3ccc(-c4cnc5cc(F)ccn45)c4c3C(=O)NC4)nc2)CC1 [I-214, 4-(7-fluoroimidazo [1,2-a]pyridin-3-yl)-7-[[5-[4-[(1S)-1-hydroxyethyl]-l-piperidyl]-2-pyridyl]amino] isoindolin-1-one]	< 100 nM
O=C1NCc2c(-c3cnc4cnccn34)ccc(Nc3ccc(N4CC5(COC5)C4)cn3)c21 [I-312, 7-((5-(2-oxa-6-azaspiro[3,3]heptan-6-yl)pyridin-2-yl)amino)-4-(imidazo[1,2-a]pyrazin-3-yl)isoindolin-1-one]	< 100 nM
O=C1NCc2c(-c3cnc4cnccn34)ncc(Nc3ccc(N4CCC(O)CC4)cn3)c21 [I-208, 7-[[5-(4-hydroxy-1-piperidyl)-2-pyridyl]-amino]-4-imidazo[1,2-a]pyrazin-3-yl-2,3-dihydropyrrolo [3,4-c]pyridin-1-one]	100 to 1000 nM
Cc1[nH]c2ncccc2c1-c1ccc(Nc2ccc(N3CCN(C)CC3)cn2)c2c1CNC2=O [I-27, 7-[[5-(4-methylpiperazin-1-yl)-2-pyridyl]amino]-4-(2-methyl-1H-pyrrolo[2,3-b]pyridin-3-yl)-isoindolin-1-one]	100 to 1000 nM
Cn1ccc2c(-c3ccc(Nc4ccc(S(C)(=O)=O)cn4)c4c3CNC4=O)ccnc21 [I-106, 4-(1-methylpyrrolo [2,3-b]pyridin-4-yl)-7-[(5-methylsulfonyl-2-pyridyl)amino] isoindolin-1-one]	< 100 nM
C[C@H]1CN(c2ccc(Nc3ccc(-c4cnc5cc(F)ccn45)c4c3C(=O)NC4)nc2CN(C)C)CCO1 [I-529, 7-[[6-[(dimethylamino)-methyl]-5-[(2S)-2-methylmorpho-lin-4-yl]-2-pyridyl]amino]-4-(7-fluoroimidazo [1,2-a]pyridin-3-yl)isoindolin-1-one Bis formic acid salt]	< 100 nM
CN(C)C[C@@H]1CN(c2ccc(Nc3ccc(-c4cnc5cc(F)ccn45)c4c3C(=O)NC4)nc2)CCO1 [I-603, (R)-7-((5-(2-((dimethylamino)-methyl)mor-pholino)pyridin-2-yl)amino)-4-(7-fluoroimidazo [1,2-a]pyridin-3-yl)isoindolin-1-one]	< 100 nM
7-[[6- [(dimethylamino)- methyl]-5- tetrahydrofuran- 3-yl-2- pyridyl]amino]- 4-(7- methylimidazo [1,2-a]pyrimidin-3- yl)isoindolin- 1-one [I-846]	< 100 nM
Cc1c[nH]c2nccc(-c3ncc(Nc4ccc(N5CCN(C)CC5)cn4)c4c3CNC4=O)c12 [I-19, 7-[[5-(4-methylpiperazin-1-yl)-2-pyridyl]amino]-4-(3-methyl-1H-pyrrolo[2,3-b]pyridin-4-yl)-2,3-dihydropyrrolo [3,4-c]pyridin-1-one]	< 100 nM
CN(C)C1(C2CN(c3ccc(Nc4ccc(-c5cnc6cc(F)ccn56)c5c4C(=O)NC5)nc3)CCO2)CC1 (stereo in doubt) [I-686, (R)-7-((5-(2-(1-(dimethylami-no)cyclopropyl)morphoIino)py-ridin-2-yl)amino)-4-(7-fluoroimidazo [1,2-a]pyridin-3-yl)isoindolin-1-one]	< 100 nM
COc1ccc2ncc(-c3ccc(Nc4ccc(N5CCC(O)CC5)cn4)c4c3CNC4=O)n2c1 [I-142, 7-[[5-(4-hydroxy-1-piperidyl)-2-pyridyl]amino]-4-(6-methoxy-imidazo[1,2-a]pyridin-3-yl)-isoindolin-1-one]	< 100 nM
Cc1c(F)ccn2c(-c3ccc(Nc4ccc(N5CCC(O)CC5)cn4)c4c3CNC4=O)cnc12 [I-209, 4-(7-fluoro-8-methyl-imidazo[1,2-a]pyridin-3-yl)-7-[[5-(4-hydroxy-1-piperidyl)-2-pyridyl]amino] isoindolin-1-one]	< 100 nM
COCCn1ccc2c(-c3ccc(Nc4ccc(N5CCN(C)CC5)cn4)c4c3CNC4=O)ccnc21 [I-47, 4-[1-(2-methoxyethyl)pyrrolo[2,3-b]pyridin-4-yl]-7-[[5-(4-methylpiperazin-1-yl)-2-pyridyl]amino] isoindolin-1-one]	< 100 nM

Further lines, results first:

IC50	Compound
< 100 nM	Cn1nc(Nc2ccc(-c3ccnc4c3ccn4C)c3c2C(=O)NC3)cc1C1CCOCC1 [I-129, 4-(1-methylpyrrolo [2,3-b]pyridin-4-yl)-7-[(1-methyl-5-tetrahydropy-ran-4-yl-pyrazol-3-yl)amino]isoin-dolin-1-one]
> 1000 nM	CN1C[C@H]2CCN(c3cccc(Nc4cnc(-c5ccnc6c5ccn6C)c5c4C(=O)NC5)n3)[C@H]2C1 [I-631, 4-(1-methyl-1H-pyrrolo[2,3-b]pyridin-4-yl)-7-((6-((3aR,6aR)-5-methylhexahy-dropyrrolo[3,4-b]pyrrol-1(2H)-yl)pyridin-2-yl)amino)-2,3-dihydro-1H-pyrrolo[3,4-c]pyridin-1-one]
< 100 nM	CN(C)C1CN(c2nc(Nc3ccc(-c4cnc5cc(F)ccn45)c4c3C(=O)NC4)ccc2C2CCOC2)C1 (stereo in doubt) [I-787, (R)-7-((6-(3-(dimethylami-no)azetidin-1-yl)-5-(tetrahydrofuran-3-yl)pyridin-2-yl)amino)-4-(7-fluoroimidazo [1,2-a]pyridin-3-yl)isoindolin-1-one]
100 to 1000 nM	Cn1ccc2c(-c3ncc(Nc4ccnc(N5CC[C@@H]6CNC[C@@H]65)n4)c4c3CNC4=O)ccnc21 [I-685, 7-((2-((3aR,6aR)-hexahydro-pyrrolo[3,4-b]pyrrol-1(2H)-yl)pyrimidin-4-yl)amino)-4-(1-methyl-1H-pyrrolo[2,3-b]pyridin-4-yl)-2,3-dihydro-1H-pyrrolo[3,4-c]pyridin-1-one]
< 100 nM	Cn1ccc2c(-c3ncc(Nc4ccc([C@H]5CCOC5)c(CN5CC[C@@H](O)C5)n4)c4c3CNC4=O)ccnc21 [I-810, 7-((6-(((R)-3-hydroxypyrroli-din-1-yl)methyl)-5-((R)-THF-3-yl)pyridin-2-yl)amino)-4-(1-methyl-1H-pyrrolo[2,3-b]pyridin-4-yl)-2,3-dihydro-1H-pyrrolo[3,4-c]pyridin-1-one]
100 to 1000 nM	Cn1ccc2c(-c3ncc(Nc4cccc(C5CCNCC5)n4)c4c3CNC4=O)ccnc21 [I-390, 4-(1-methyl-1H-pyrrolo[2,3-b]pyridin-4-yl)-7-((6-(piperidin-4-yl)pyridin-2-yl)amino)-2,3-dihydro-1H-pyrrolo[3,4-c]pyridin-1-one]
< 100 nM	CC(C)N(C)Cc1nc(Nc2ccc(-c3cnc4cc(F)ccn34)c3c2C(=O)NC3)ccc1C1CCOC1 (stereo in doubt) [I-729, (S)-4-(7-fluoroimidazo [1,2-a]pyridin-3-yl)-7-((6-((isopropyl(methyl)amino)methyl)-5-(tetrahydrofuran-3-yl)pyridin-2-yl)amino)isoin-dolin-1-one]
< 100 nM	CNCc1nc(Nc2ccc(-c3cnc4cc(F)ccn34)c3c2C(=O)NC3)ccc1C1CCOC1 (stereo in doubt) [I-722, (S)-4-(7-fluoroimidazo [1,2-a]pyridin-3-yl)-7-((6-((methyl-amino)methyl)-5-(tetrahydrofuran-3-yl)pyridin-2-yl)amino)isoin-dolin-1-one]
100 to 1000 nM	Cn1ccc2c(-c3ncc(Nc4cccc(N5C[C@H](N6CCC6)CC5=O)n4)c4c3CNC4=O)ccnc21 [I-724, (R)-7-((6-(4-(azetidin-1-yl)-2-oxopyrrolidin-1-yl)pyridin-2-yl)amino)-4-(1-methyl-1H-pyrrolo[2,3-b]pyridin-4-yl)-2,3-dihydro-1H-pyrrolo[3,4-c]pyridin-1-one]
< 100 nM	O=C1NCc2c(-c3cnc4cc(F)ccn34)ccc(Nc3ccc(C4CCOC4)c(CNCC4CC4)n3)c21 (stereo not drawn) [I-849, 7-[[6-[(cyclopropylmethylamino)methyl]-5-tetrahydrofuran-3-yl-2-pyridyl]amino]-4-(7-fluoroimidazo [1,2-a]pyridin-3-yl)isoindolin-1-one Formic acid salt]
